Data from US20040077540A1, “Compositions and methods for modulating physiology of epithelial junctional adhesion molecules for enhanced mucosal delivery of therapeutic compounds” (Nastech Pharmaceutical Company Inc., priority 2002, published 2004).
Where two headings read alike, the source gives them in different places. Where a SMILES comes first, the peptide text is derived from it. Where no end group is shown, it is not given here.

Legend:
[1] = test system: EpiAirway™ units (mucosal epithelial tissue); assay: LDH assay, cytolysis of EpiAirway units; format: cell-based
Source text: While measurement of mitochondrial reductase activity by MTT reduction is a sensitive probe of cell viability, the assay necessarily destroys the cells and therefore can be carried out only at the end of each study. When cells undergo necrotic lysis, their cytotosolic contents are spilled into the surrounding medium, and cytosolic enzymes such as lactate dehydrogenase (LDH) can be detected in this medium. An assay for LDH in the medium can be performed on samples of medium removed at each time point of the two-hour determination of permeation kinetics. […] A. The recommended LDH assay for evaluating cytolysis of the EpiAirway™ units is based on conversion of lactate to pyruvate with generation of NADH from NAD. […] The formazan formed from reduction of INT is soluble, so that the entire assay for LDH activity can be carried out in a homogenous aqueous medium containing lactate, NAD, diaphorase, and INT. B. The assay for LDH activity is carried out on 50 μL aliquots from samples of “supernatant” medium surrounding an EpiAirway™ unit and collected at each time point. These samples were either stored for no longer than 24 h in the refrigerator or were thawed after being frozen within a few hours after collection. […] The aliquots are all transferred to a 96 well microplate. C. […] Thus, within experimental error, these sham-treated units show no cytolysis of the epithelial cells over the time course of the permeation kinetics measurements. D. […] This freeze-thaw cycle effectively lyses the cells and releases their cytosolic contents, including LDH, into the supernatant medium. […] E. To each well containing an aliquot of supernatant medium, a 50 μL aliquot of the LDH assay reagent is added. […] F. The reactions are terminated by addition of a “stop” solution of 1 M acetic acid, and within one hour of addition of the stop solution, the absorbance of the plate is determined at 490 nm. G.

[2] = MTT assay, viability of mucosal epithelial tissue; format: cell-based; set-up: concentration or dose not given beside the values; conditions: human, EpiAirway™ units (mucosal epithelial tissue)
Experimental: MTT is a cell-permeable tetrazolium salt which is reduced by mitochondrial dehydrogenase activity to an insoluble colored formazan by viable cells with intact mitochondrial function or by nonmitochondrial NAD(P)H dehydrogenase activity from cells capable of generating a respiratory burst. […] We have employed a MTT reagent kit prepared by MatTek Corp for their units in order to assess viability.
A. The MTT reagent is supplied as a concentrate and is diluted into a proprietary DMEM-based diluent on the day viability is to be assayed (typically the afternoon of the day in which permeation kinetics and TER were determined in the morning). The final MTT concentration is 1 mg/mL
B. The final MTT solution is added to wells of a 24-well microplate at a volume of 300 μL per well. As has been noted above, this volume is sufficient to contact the membranes of the EpiAirway™ units but imposes no significant positive hydrostatic pressure on the cells.
C. The units are removed from the 24-well plate in which they were placed after TER measurements, and after removing any excess liquid from the exterior surface of the units, they are transferred to the plate containing MTT reagent. The units in the plate are then placed in an incubator at 37° C. in an atmosphere of 5% CO2 in air for 3 hours.
D. At the end of the 3-hour incubation, the units containing viable cells will have turned visibly purple. The insoluble formazan must be extracted from the cells in their units to quantitate the extent of MTT reduction. Extraction of the formazan is accomplished by transferring the units to a 24-well microplate containing 2 mL extractant solution per well, after removing excess liquid from the exterior surface of the units as before. This volume is sufficient to completely cover both the membrane and the apical surface of the units. Extraction is allowed to proceed overnight at room temperature in a light-tight chamber. MTT extractants traditionally contain high concentrations of detergent, and destroy the cells.
E. At the end of the extraction, the fluid from within each unit and the fluid in its surrounding well are combined and transferred to a tube for subsequent aliquotting into a 96-well microplate (200 μL aliquots are optimal) and determination of absorbance at 570 nm on a VMax multiwell microplate spectrophotometer. […] The “blank” for the determination of formazan absorbance is a 200 μL aliquot of extractant to which no unit had been exposed. This absorbance value is assumed to constitute zero viability.
F. Two units from each kit of 24 EpiAirway™ units are left untreated during determination of permeation kinetics and TER. These units are employed as the positive control for 100% cell viability. In all the studies conducted, there was no statistically significant difference in the viability of the cells in these untreated cells compared to viability of cells in control units which had been sham treated for permeation kinetics and on which TER determinations had been performed. The absorbance of all units treated with test formulations is assumed to be linearly proportional to the percent viability of the cells in the units at the time of the incubation with MTT. It should be noted that this assay is carried out typically no sooner than four hours after introduction of the test material to the apical surface, and subsequent to rinsing of the apical surface of the units during TER determination.
The MTT assays were performed using MTT-100, MatTek kits. […] of the MTT solution was added into each well. Tissue inserts were gently rinsed with clean PBS and placed in the MTT solution. The samples were incubated at 37° C. for 3 hours. After incubation the cell culture inserts were then immersed with 2.0 mL of the extractant solution per well to completely cover each insert. The extraction plate was covered and sealed to reduce evaporation. Extraction proceeds overnight at RT in the dark. […]

aminopeptidases = conditions: cited from earlier work
[3] = test system: ciliary beating frequency; conditions: cited from earlier work
[4] = test system: ciliary function in epithelial cell cultures; conditions: cited from earlier work
[5] = aqueous solution at physiologic pH; cited from earlier work
[6] = intraduodenal, rats, with 1% (w/v) saline dispersion of polycarbophil vs aqueous solution without polymer; cited from earlier work
[7] = formulations comprising the permeabilizing peptide
[8] = formulations comprising the permeabilizing peptide, read-out: MTT assay results (viability)

Compound	toxic effects on viability of mucosal epithelial tissue, LDH assay [1, 7]	viability [2, 8]	further results
CC[C@H](C)[C@H](NC(=O)[C@H](CCCNC(=N)N)NC(=O)[C@@H](N)C(C)C)C(=O)N1CCC[C@H]1C(=O)O [NP-A, VRIP] (H-VRIP-OH)	no significant toxic effects	> 80%	–
VVPEAQKREM [NP-33]	no significant adverse effects	> 80%	–
DIYSTLLGLP [NP-41]	no significant adverse effects	> 80%	–
VPVSQKYELG [NP-32]	no significant adverse effects	> 80%	–
GFSSPRVEW [NP-21]	–	–	toxic effects on viability of mucosal epithelial tissue, LDH assay [1]: no significant toxic effects; viability [2]: > 80%
CC(C)CC(N)B(O)O (centres unmarked) [boro-leucine]	–	–	effectiveness in enzyme inhibition relative to bestatin (aminopeptidases): more than 100 times; effectiveness in enzyme inhibition relative to puromycin (aminopeptidases): more than 1000 times
CC[C@H](C)[C@H](N)C(=O)N[C@H](C(=O)N[C@@H](C)C(=O)N[C@@H](CO)C(=O)O)[C@@H](C)O [NP-D, ITAS] (H-ITAS-OH)	no significant toxic effects	> 80%	–
CCO [ethanol]	–	–	concentration reducing the in vitro ciliary beating frequency [3]: greater than 2%
2-alkyl-4-hydroxyquinolines [pyo compound]	–	–	concentration producing ciliostasis / inhibiting ciliary motility [4]: 50 µg/mL
NCCN(CCN)/[N+]([O-])=N/O [diethylenetriamine/NO]	–	–	rate (time) of NO release [5]: approximately 20 hours
VASGQKREMG [NP-29]	–	–	toxic effects on viability of mucosal epithelial tissue, LDH assay [1]: no significant adverse effects; viability [2]: > 80%
NTIIRDFYNP [NP-10]	no significant adverse effects	> 80%	–
EDTGTYTCM [NP-8]	–	–	toxic effects on viability of mucosal epithelial tissue, LDH assay [1]: no significant toxic effects; viability [2]: > 80%
YAGDNIVTAQ [NP-17]	–	–	toxic effects on viability of mucosal epithelial tissue, LDH assay [1]: no significant adverse effects; viability [2]: > 80%
NIIQDFYNPL [NP-31]	–	–	toxic effects on viability of mucosal epithelial tissue, LDH assay [1]: no significant adverse effects; viability [2]: > 80%
CCN(CC)/[N+]([O-])=N/O.CCNCC [diethylamine/NO]	–	–	rate (time) of NO release [5]: < 3 min
9-desglycinamide, 8-arginine vasopressin [DGAVP]	–	–	increase of bioavailability [6]: 3-5 fold
VKLSCAY [NP-B, VKLSCAY]	–	–	toxic effects on viability of mucosal epithelial tissue, LDH assay [1]: no significant toxic effects; viability [2]: > 80%
CC(C)[C@H](NC(=O)[C@@H](N)CO)C(=O)N[C@H](C(=O)N[C@@H](CCCNC(=N)N)C(=O)O)[C@@H](C)O [NP-E, SVTR] (H-SVTR-OH)	no significant toxic effects	> 80%	–
YLYHYCVVD [NP-26]	no significant toxic effects	> 80%	–
GILRDFYSPL [NP-27]	no significant adverse effects	> 80%	–
ALCNQFYTP [NP-25]	no significant toxic effects	> 80%	–
GSLYGSQIY [NP-23]	no significant toxic effects	> 80%	–
TGITFKSVT [NP-C]	–	–	toxic effects on viability of mucosal epithelial tissue, LDH assay [1]: no significant toxic effects; viability [2]: > 80%
GFSLGLWMEC [NP-42]	no significant adverse effects	> 80%	–
VPDSMKFEIG [NP-30]	no significant adverse effects	> 80%	–
GVNPTAQSS [NP-22]	no significant toxic effects	> 80%	–
AATGLYVDQ [NP-24]	no significant toxic effects	> 80%	–
MTPVNARYEF [NP-28]	no significant adverse effects	> 80%	–
